This note sets out measurements from US8772237B2, “Compositions and methods for counteracting effects of reactive oxygen species and free radicals” (Ischemix, Inc., priority 1999, dated 2014).

Ends that are not written are not given here.

The test system of one experiment is catalase (CAT) mRNA. Put plainly: RT-PCR upregulation of catalase (CAT) mRNA in primary rat cortical cultures. In kind it is cell-based. As to conditions: 100 ng/ml. The source says:
Peptide compounds of the invention may also upregulate mRNA for catalase (CAT). Experiments using the RT-PCR methods to detect upregulation of CAT mRNA in primary rat cortical brain cultures treated with various representative peptide compounds, i.e., CMX-9236, CMX-9963, and CMX-9967. The catalase probe duplex consisted of a sense primer having the sequence […] (SEQ ID NO:31) and antisense primer having the sequence […] (SEQ ID NO:32) flanking a 95 bp region of the CAT DNA.
Primary rat brain cortical cell cultures were incubated with 100 ng/ml of the peptide compound CMX-9236 for 0, 0.5, 1, 2, 3, 6, 12, 24, and 48 hours. […] The upregulation of CAT mRNA was maximal at 3 hours after the addition of the peptide compound, and it decreased back to control levels at 48 hours. GAPDH was the internal standard in these experiments. […] A 13-fold increase in CAT mRNA levels was observed (over control) of CAT mRNA occurred when primary rat brain cortical cultures were incubated with 100 ng/ml of CMX-9236 for 3 hours.

The next experiment has as its system SOD-1 mRNA. Put plainly: RT-PCR upregulation of SOD-1 mRNA in rat primary myocyte cultures. As to conditions: rat primary myocytes, 3-hour incubation. In kind it is cell-based. On the procedure: Primary cultures of rat brain cortical cells were incubated with 100 ng/ml of peptide compound CMX-9236 for durations of 0 to 48 hours. mRNA was isolated from the cytoplasmic fraction of lysed cells according to standard methods (Angel et al., Cell 49:729-739, 1987). The RNA was incubated according to the RT-PCR protocol with two strands, 20 nucleotides long, one for the sense and one from the antisense strand. The sequences were selected to be unique for superoxide dismutase-1 (SOD-1), and to span one intron segment. […] The sequence of the two probe segments of the oligo dT segments for SOD are as follows: anti-sense strand, […] (SEQ ID NO:29), and sense strand, […] (SEQ ID NO:30). These span a sequence of 208 base pairs (bp) on the primary SOD sequence. The mixture was then treated with reverse transcriptase to obtain the cDNA according to standard PCR methods. The cDNA was then analyzed by electrophoresis and separated according to sequence lengths on a non-denaturing 5% polyacrylamide gel. The electrophoretically separated molecules were treated with ethidium bromide to stain double-stranded DNA fragments. […] The gels were then analyzed by a laser scanning fluorescence detector to quantitate the amount of messenger RNA for the extent of upregulation of SOD message and its time course of synthesis as a function of stimulation by CMX-9236. […]

In experiment [1] the test system is middle cerebral artery (MCA) permanent occlusion stroke model. The experiment in a line: Permanent MCA 24-hour occlusion stroke model. In kind it is in vivo, Sprague-Dawley rats. The following applies: Dose 0.05 mg/hr.
Experiment [2] relates to superoxide dismutase (SOD) protein. The experiment in a line: Western immunoblot of SOD protein in rat brain primary cortical cultures. In kind it is cell-based. The following applies: Dose 6.7 pmol/ml, 5 hours at 37° C. The procedure: Primary cortical cultures were obtained by growing newborn rat brain cortical cells in Delbecco's modified Eagle medium supplemented with 25 μg/ml of gentamycin and 10% fetal calf serum. The cells were isolated from the E-21 cortex of rat brain, plated at a density of 1×10^5 per ml and grown to confluence within four to five days in an atmosphere containing air and 5% CO2 at 37° C. as described in Cornell-Bell et al., Science, 247: 470-473 (1990) and Cell Calcium, 12: 185-204 (1991). Cultures were grown in 20 ml flasks as a monolayer and then exposed to various concentrations of peptides for studies of the effects of peptides on upregulation of genes for SOD and CAT and on the transmigration of transcription factor AP-1 to cell nuclei. […]
Tissue culture experiments were carried out using primary cultures of rat brain cortical cells as previously described above in Example 2. Primary cultures from embryonic rat brain isolated at E-21 (21 day embryos) and incubated for five hours with various doses: 1, 10, 100 ng/ml of CMX-99672. Cytoplasmic proteins were isolated and analyzed for upregulation of SOD and CAT by Western immunoblots as described above. […] The Western blot was scanned to quantify the fold-increase in SOD production in cell cultures treated with the CMX-99672 peptide compound.
Representative peptide compounds were tested at various doses and compared for their ability to upregulate expression of genes for SOD and/or CAT in rat primary cortical cultures basically as described above. Cultures were incubated with a peptide compound for 5 hours at 37° C. Cytoplasmic protein fractions were prepared as described above. Cytoplasmic proteins were separated by gel electrophoresis and analyzed by Western immunoblots using antisera to SOD and CAT, respectively (Rockland, Inc., Gilbertsville, Pa.). […]

In the case of “KKDGDGDFAIDAPE [CMX-9236, uncapped peptide]”, in the experiment with catalase (CAT) mRNA, the “time at which CAT mRNA decreased back to control levels” value amounted to 48 h and the “time of maximal upregulation of CAT mRNA after addition” value was found to be 3 h. The “increase in CAT mRNA levels over control” value with catalase (CAT) mRNA (3 hours) is 13 fold. The “upregulation of SOD mRNA” value with SOD-1 mRNA (1 ng/ml) is on record as 3 fold. Moreover, in the experiment with SOD-1 mRNA (10-100 ng/ml), the “upregulation of SOD-1 mRNA transcripts” value is “about 6 fold”. Also, in experiment [1], the “Percent Neurological Rescue” value was 35 ± 8% and the “Percent Rescue (percent decrease in infarct size vs vehicle controls)” value was found to be 23 ± 7%. The sequence also displayed an SOD in experiment [2] of 466 % Control.
